This note sets out measurements from patent US20050170345A1, “Neuroglobin is up-regulated by and protects neurons from hypoxic-ischemic injury” (priority 2001, published 2005).

“Also recorded” adds a separate entry of the source. {Fluorescein} = fluorescein label

Format in all cases: cell-based, mouse
Data set [1] has as its system cultured cortical neurons. Nature of the data set: Cell viability (MTT absorbance, trypan blue exclusion) of ODN-treated cultured cortical neurons. Here is the method: Neuronal cultures were prepared from the cerebral hemispheres of 16-day Charles River CD1 mouse embryos, seeded at 3×10^5 cells per well on 24-well culture dishes precoated with poly-D-lysine, and grown in Eagle's minimal essential medium (GIBCO BRL) with 5% horse serum and 5% fetal bovine serum (Jin et al. (2000) Proc. Natl. Acad. Sci. U.S.A. 97: 10242-10247). Cultures were treated with 10 μM cytosine arabinoside on day 6 and used on day 11, when >95% of cells expressed the neuronal marker, microtubule-associated protein 2. […] Cell viability was assayed by incubating cultures with 5 mg/ml of 3-(4,5-dimethylthiazol-2-yl)-2,5-diphenyl tetrazolium bromide (MTT) at 37° C. for 2 h and measuring absorbance at 570 nm in solubilized cells using a Cytofluor Series 4000 multi-well plate-reader (PerSeptive Biosystems). […]
(§1) A phosphorothioate antisense ODN labeled with fluorescein at the 5′ end and directed against the initial coding region of the target Ngb mRNA (5′-TCC GGG CGC TCC AT-3′, from nucleotides 90-77, SEQ ID NO:2)was designed based on the mouse Ngb sequence obtained from Genbank (accession number NM 022414). […] Cultures were analyzed by Western blotting and by MTT cell viability assay, and fluorescence microscopy was used to confirm transfection and examine its relationship to cell death, using caspase-3 activation as a marker.

The subject of a further data set is Ngb mRNA. In words: Ngb protein expression in cultured cortical neurons transfected with antisense/sense ODN (Western blot). The settings on record: ODN-transfected cortical neurons vs sense-transfected or untransfected control cultures. Here is the method: Cell lysates were prepared as described (Jin et al. (2000) Proc. Natl. Acad. Sci. U.S.A. 97: 10242-10247) and 100-μg protein samples were electrophoresed on 12% SDS-PAGE gels and transferred to polyvinyldifluoridine membranes. Membranes were incubated overnight at 4° C. with a rabbit polyclonal antibody against Ngb (1:2000), which was produced by immunizing with a synthetic peptide corresponding to amino-acids 35-50 (NH2-CLSSPEFLDHIRKVML-COOH, , SEQ ID NO:1) of mouse Ngb, and affinity-purified using a Sulfolink kit (Pierce). A horseradish peroxidase-conjugated anti-rabbit secondary antibody (Santa Cruz Biotechnology) and a chemiluminescence substrate system (NEN) were used to visualize the immunolabeled bands (Id.).
as §1
On the technique in general: A western blot detects proteins with antibodies after separation by electrophoresis.

In data set [2] the test system is 17-20 kDa caspase-3 cleavage product. In words: Caspase-3 cleavage product immunofluorescence in ODN-transfected cortical neurons. The settings on record: fluorescence microscopy, hypoxic cortical neurons. As for the experimental part:
Cultures were fixed with 4% paraformaldehyde and incubated over night at 4° C. with one or more of the following primary antibodies: rabbit polyclonal anti-Ngb (1:200), mouse monoclonal anti-NeuN (1:200, Chemicon), and rabbit polyclonal anti-17-20 kDa caspase-3 cleavage product (1:100, New England Biolabs). The secondary antibodies (all 1:200) were fluorescein isothiocyanate-conjugated goat anti-rabbit or anti-mouse IgG (Vector) and rhodamine-conjugated donkey anti-rabbit IgG (Jackson ImmunoResearch). Controls for non-specific binding included omitting primary (FIG. 1C) or secondary antibodies. In addition, in some cultures, nuclei were labeled with 4′,6-diamidino-2-phenylindole (DAPI) or DNA strand breaks were labeled with the Klenow fragment of DNA polymerase I (Roche) followed by rhodamine avidin D (Vector), as described (Jin et al. (1999) J Neurochem 72: 1204-1214). Fluorescence signals were detected with a Nikon E800 epifluorescence microscope using excitation/emission wavelengths of 535/565 nm for rhodamine (red), 470/505 nm for fluorescein isothiocyanate (green) and 360/400 nm for DAPI (blue). Results were recorded with a Magnifire digital color camera (Optronics). […]

The test system of data set [3] is cultured cortical neurons. Nature of the data set: Transfection efficiency of fluorescent ODN in cortical neuron cultures. The following applies: fluorescent Ngb antisense ODN, DAPI counterstain, n=10. The source says: A phosphorothioate antisense ODN labeled with fluorescein at the 5′ end and directed against the initial coding region of the target Ngb mRNA (5′-TCC GGG CGC TCC AT-3′, from nucleotides 90-77, SEQ ID NO:2)was designed based on the mouse Ngb sequence obtained from Genbank (accession number NM 022414). This and a sense sequence (5′-ATG GAG CGC CCG GA-3′, SEQ ID NO:3), from nucleotides 77-90) were synthesized commercially (Operon Technologies) and purified by HPLC. Cultures were transfected with ODNs (1-10 μM) using FuGENE 6 (Roche), beginning 3 h before the onset of hypoxia. Cultures were analyzed by Western blotting and by MTT cell viability assay, and fluorescence microscopy was used to confirm transfection and examine its relationship to cell death, using caspase-3 activation as a marker.
To begin to investigate the possibility that Ngb protects neurons from hypoxia, cultured neurons were transfected with a phosphorothioate antisense ODN directed against the initial coding region of the target Ngb mRNA (5′-TCC GGG CGC TCC AT-3′, from nucleotides 90-77, SEQ ID NO:4) or with a control sense sequence (5′-ATG GAG CGC CCG GA-3′, from nucleotides 77-90, SEQ ID NO:5), both labeled with fluorescein at the 5′ end. Transfection efficiency, measured in cultures transfected with the fluorescent Ngb antisense ODN and counterstained with DAPI, was 96±1% (n=10). […]

For “5′-TCC GGG CGC TCC AT-3′ (antisense TCCGGGCGCTCCAT; DNA, all phosphorothioate, 5' {Fluorescein}, methylation of C not given here) [antisense ODN]”, the “effect on the toxicity of staurosporine or SNP” value in data set [1] (0.1 μM staurosporine or 200-400 μM SNP, 12 h, 5 μM ODN) is “no effect”. For the same substance, the “viability of cultured neurons exposed to hypoxia” value in data set [1] (12 h without oxygen, 5 μM ODN added 3 h prior, MTT absorbance or trypan blue exclusion) is reported as “decrease in the viability”. Moreover, in the data set with Ngb mRNA, the Ngb protein expression result is listed as “reduced; also recorded: decreased Ngb expression”. Moreover, the “transfected cells co-expressing the 17-20 kDa caspase-3 cleavage product” value in data set [2] is “many”. Further, the Transfection efficiency in data set [3] is on record as 96±1%.
